From patent publication US20100279976A1, “USE OF ARTEMISININ AND ITS DERIVATIVES IN CANCER THERAPY” (SHANGHAI INSTITUTES FOR BIOLOGICAL SCIENCES, CAS, priority 2009, published 2010) come the findings set out here.

In the experiment the test system is HepG2 cells. Description: Western blot of apoptosis-related proteins. Type of experiment: cell-based, human. The settings on record: HepG2, 48 h. As for the experimental part:
Whole-cell lysates may be generated with radioimmunoprecipitation assay lysis buffer, and after centrifugation, the supernatant fraction may be collected for immunoblotting. Proteins may be resolved by SDS-PAGE and transferred onto a nitrocellulose membrane. After blocking with 5% nonfat milk in blocking buffer [20 mmol/L TBS (pH 7.5) containing 0.1% Tween 20], the membrane may be incubated with the desired primary antibody for 2 h at room temperature and then incubated with appropriate peroxidase conjugated secondary antibody. The immunoreactive bands may be visualized using the ECL Plus Western Blotting Detection System. The level of ([…] for each sample may be used as loading control. Tumor tissues may be collected at the termination of the experiment and homogenized using a homogenizer in ice-cold lysis buffer. Supernatants may be collected and used to examine the expression of different proteins by Western blot analysis.

As to `C[C@@H]1CC[C@H]2[C@@H](C)C(=O)O[C@@H]3O[C@@]4(C)CC[C@@H]1[C@]32OO4` [ART, artemisinin], the MDM2 level entry was “decrease”; the “cleavage of caspase-3 and PARP” value is given as “dose-dependent increase”; the “level of Bax” value is listed as “concomitant increase”; the “level of Bcl-2 protein” value is “dose-dependent reduction”. Moreover, the p53 level entry is listed as “dose-dependent increase”.
